Assay [1] addresses T1, RIβ (RIβ A268; His-RIβ) (Homo sapiens, UniProt P31321, A268R).
T1 construct: gene PRKAR1B; full-length, N-terminal His-tag (pQTEV vector), E. coli TP2000 cells, Ni-NTA; dimer; 380 residues as printed
As to the kind of experiment: fluorescence polarization, direct titration. It is filed as binding. The note with it: labelled compound; 0.5 nM 8-Fluo-cAMP, RIβ R268 dilution series; 20 mM MOPS pH 7.4, 150 mM NaCl, room temperature; residue 268 in bovine RIα numbering (270 in human RIβ); read-out: affinity.

In assay [2] the target is T2, RIβ (RIβ A268; His-RIβ) (Homo sapiens, UniProt P31321).
T2 construct: gene PRKAR1B; full-length, N-terminal His-tag (pQTEV vector), E. coli TP2000 cells, Ni-NTA; dimer; 380 residues as printed
As to the kind of experiment: fluorescence polarization, direct titration. In kind it is binding. The note with it: labelled compound; 0.5 nM 8-Fluo-cAMP, RIβ dilution series; 20 mM MOPS pH 7.4, 150 mM NaCl, room temperature; read-out: affinity.

The target of assay [3] is GFP2 fusion of human PKA Cα (BRET acceptor) (human) (UniProt P17612). Nature of the assay: FRET or BRET; BRET2 in living HEK293 cells; RLuc8 fused to the R subunit, GFP2 fused to the C subunit; 37 °C, HBSS w/o Mg2+/Ca2+ pH 7.4, coelenterazine 400a; time courses and end points (20 min); cells treated with buffer, 100 nM isoproterenol, or 50 uM forskolin + 100 uM IBMX.

pKd: −log10 of the molar value.

T2 sequence (P31321 2-381): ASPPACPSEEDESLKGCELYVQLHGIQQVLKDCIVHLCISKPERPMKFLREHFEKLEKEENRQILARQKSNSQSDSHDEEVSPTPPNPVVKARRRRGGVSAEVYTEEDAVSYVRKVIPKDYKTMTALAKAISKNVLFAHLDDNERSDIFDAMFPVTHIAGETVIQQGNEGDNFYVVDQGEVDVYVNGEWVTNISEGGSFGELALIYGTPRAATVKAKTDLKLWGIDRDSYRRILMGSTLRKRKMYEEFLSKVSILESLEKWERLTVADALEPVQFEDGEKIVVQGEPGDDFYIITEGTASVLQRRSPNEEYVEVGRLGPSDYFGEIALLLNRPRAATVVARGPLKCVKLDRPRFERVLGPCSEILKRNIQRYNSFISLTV
T1 sequence (P31321 2-381 A268R): as the sequence (P31321 2-381) above, with A267R counted along it

Consider “8‐(2‐[fluoresceinyl]aminoethylthio)‐cAMP [8-Fluo-cAMP]”, for which the pKd at RIβ (RIβ A268; His-RIβ) [1] and on RIβ (RIβ A268; His-RIβ) [2] was 8.40 in each case. On to “RLuc8 fusion of human RIβ R268 (BRET donor) (natural protein)”, for which the maximal cAMP-induced dissociation of the holoenzyme (%) in assay [3] turned out to be 30%.

For the origin of these results see PMC13080237, “Functional divergence of protein kinase A regulatory subunit Iβ variants: the importance of N3A motifs in PKA regulation” (The Febs Journal, 2025).
